The source of these data is patent publication US20060264460A1 (Wyeth, priority 2005, published 2006).

The target in the assay is T1, human Cot/Tpl2 kinase (Homo sapiens, UniProt P41279).
T1 construct: human Cot/Tpl2 kinase construct encoding residues 30-398; 6His (N); made in house; host or cells: Sf9 insect cells, baculovirus system (BD Biosciences)
T1 sequence (P41279 30-398): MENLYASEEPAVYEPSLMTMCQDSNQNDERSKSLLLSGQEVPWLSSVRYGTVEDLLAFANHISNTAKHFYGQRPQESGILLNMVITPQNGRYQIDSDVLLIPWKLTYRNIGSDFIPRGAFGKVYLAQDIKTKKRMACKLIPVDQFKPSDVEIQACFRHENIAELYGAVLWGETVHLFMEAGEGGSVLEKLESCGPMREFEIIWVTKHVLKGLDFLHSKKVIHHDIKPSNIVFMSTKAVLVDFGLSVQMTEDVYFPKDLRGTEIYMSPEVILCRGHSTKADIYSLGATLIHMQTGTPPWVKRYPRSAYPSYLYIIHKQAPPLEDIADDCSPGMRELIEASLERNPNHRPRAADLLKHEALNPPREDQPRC
The assay can be described thus: Tpl2/Cot kinase assay: GST-MEK1 phosphorylation detected by ELISA (DELFIA Eu). The format is biochemical. The settings on record: 0.4 nM Tpl2, 35 nM GST-MEK1, 50 uM ATP, 1 h at 30° C. How it is done: Sf9 cells expressing the kinase were lysed in 50 mM NaPhosphate pH=8; 300 mM NaCl; 5 mM imidazole; 0.1 mM EGTA; 25 mM beta-glycerophosphate; 1% TX-100, 1% glycerol; 6 mM beta-mercaptoethanol and protease inhibitors. The lysate was clarified by centrifugation and was loaded onto a Ni-Sepharose column. The column was washed with 50 mM NaPhosphate pH=8; 300 mM NaCl; 15 mM imidazole; 1% glycerol; and 6 mM beta-mercaptoethanol. His-Tpl2 was eluted with 50 mM NaPhosphate pH=8; 300 mM NaCl; 250 mM imidazole; 1% glycerol; and 6 mM beta-mercaptoethanol. The eluted protein was further purified by size exclusion chromatography. Fractions corresponding to monomeric Tpl2 were then used in the assay.
Tpl2/Cot activity was directly assayed using GST-MEK1 as a substrate. GST-MEK1 phosphorylation on serine residues 217 and 221 was detected by ELISA. 0.4 nM Tpl2 was incubated with 35 nM GST-MEK1 in a kinase reaction buffer containing 20 mM MOPS pH=7.2; 50 uM ATP; 20 mM MgCl2; 1 mM DTT; 25 mM β-glycerophosphate; 5 mM EGTA; and 1 mM sodium orthovanadate for 1 h at 30° C. The compounds of the inventions solubilized in 100% DMSO were pre-diluted in assay buffer so that the final concentration of DMSO in the reaction was 1%. The kinase reaction was carried out in 100 ul volume on 96 well plates. The kinase reaction was then stopped with the addition of 100 mM EDTA. […] After a 1 hour incubation at room temperature, the detection plate was washed 4 times with TBST (TBS+0.05% Tween 20) and then incubated for another hour at room temperature with anti phospho-MEK1 antibody (Cell Signaling) 1:1000 in 10 mM MOPS 7.5; 150 mM NaCl; 0.05% Tween 20; 0.1% Gelatin; 0.02% NaN3; and 1% BSA. The detection plate was washed again and incubated for 30 min with DELFIA Europium (Eu) labeled goat anti-rabbit IgG (Perkin-Elmer), 1:4000 in the same buffer used for the primary incubation. After a final wash, Eu detection solution was added to each well and the Eu signal was measured in a Wallac Victor^2 Multilabel Counter. IC50 calculations were performed using the XLfit software package (IDBS, Guildford, UK).
Molecule “1-[(3-chloro-4-fluorophenyl)amino]-5-[(1E)-3-hydroxyprop-1-en-1-yl]-7-[(1H-imidazol-5-ylmethyl)amino]-2-naphthonitrile [Example 313]” displayed a 50% inhibitory concentration (IC50) of 230 nM. On to “4-(3-Chloro-4-fluoro-phenylamino)-6-[(tetrahydro-furan-2-ylmethyl)-amino]-quinoline-3-carbonitrile [Example 41]”, for which the half-maximal inhibitory concentration (IC50) is 2200 nM. For `N#Cc1cnc2ccc(NC(=O)c3ccccc3)cc2c1Nc1ccc(F)c(Cl)c1` [Example 1, N-[4-(3-Chloro-4-fluoro-phenylamino)-3-cyano-quinolin-6-yl]-benzamide], the IC50 turned out to be 11000 nM. Next, `N#Cc1cnc2ccc(NC(=O)c3cccnc3)cc2c1Nc1ccc(F)c(Cl)c1` [Example 2, N-[4-(3-Chloro-4-fluoro-phenylamino)-3-cyano-quinolin-6-yl]-nicotinamide]: 23900 nM. As for `N#Cc1cnc2ccc(NCc3ccco3)cc2c1Nc1ccc(F)c(Cl)c1` [Example 3, 4-(3-Chloro-4-fluoro-phenylamino)-6-[(furan-2-ylmethyl)-amino]-quinoline-3-carbonitrile], the half-inhibitory concentration (IC50) was 240 nM. The figure for `N#Cc1cnc2ccc(NCc3ccoc3)cc2c1Nc1ccc(F)c(Cl)c1` [Example 5, 4-(3-Chloro-4-fluoro-phenylamino)-6-[(furan-3-ylmethyl)-amino]-quinoline-3-carbonitrile] is 370 nM; for `N#Cc1cnc2ccc(NCc3cccc([N+](=O)[O-])c3)cc2c1Nc1ccc(F)c(Cl)c1` [Example 6, 4-(3-Chloro-4-fluoro-phenylamino)-6-(3-nitro-benzylamino)-quinoline-3-carbonitrile] it is 200 nM. Next, `Cn1c(CNc2ccc3ncc(C#N)c(Nc4ccc(F)c(Cl)c4)c3c2)nc2ccccc21` [Example 7, 4-(3-Chloro-4-fluoro-phenylamino)-6-[(1-methyl-1H-benzoimidazol-2-ylmethyl)-amino]-quinoline-3-carbonitrile]: 18 nM; `N#Cc1cnc2ccc(NCc3nccs3)cc2c1Nc1ccc(F)c(Cl)c1` [Example 8, 4-(3-Chloro-4-fluoro-phenylamino)-6-[(thiazol-2-ylmethyl)-amino]-quinoline-3-carbonitrile]: 31 nM; `N#Cc1cnc2ccc(NCc3ccc(CO)o3)cc2c1Nc1ccc(F)c(Cl)c1` [Example 9, 4-(3-Chloro-4-fluoro-phenylamino)-6-[(5-hydroxymethyl-furan-2-ylmethyl)-amino]-quinoline-3-carbonitrile]: 211 nM. Take `N#Cc1cccc(CNc2ccc3ncc(C#N)c(Nc4ccc(F)c(Cl)c4)c3c2)c1` [Example 10, 4-(3-Chloro-4-fluoro-phenylamino)-6-(3-cyano-benzylamino)-quinoline-3-carbonitrile]: inhibition was half-maximal at 200 nM (IC50). Take `N#Cc1cnc2ccc(NCc3ccc([N+](=O)[O-])o3)cc2c1Nc1ccc(F)c(Cl)c1` [Example 11, 4-(3-Chloro-4-fluoro-phenylamino)-6-[(5-nitro-furan-2-ylmethyl)-amino]-quinoline-3-carbonitrile]: inhibition was half-maximal at 123 nM (IC50). As for `N#Cc1cnc2ccc(NCc3ccc(-n4ccnc4)cc3)cc2c1Nc1ccc(F)c(Cl)c1` [Example 12, 4-(3-Chloro-4-fluoro-phenylamino)-6-(4-imidazol-1-yl-benzylamino)-quinoline-3-carbonitrile], the concentration for half-maximal inhibition (IC50) amounted to 1300 nM. Compared with the last molecule, the IC50 is about 11-fold higher. Turning to `N#Cc1cnc2ccc(NCc3ncc[nH]3)cc2c1Nc1ccc(F)c(Cl)c1` [Example 13, 4-(3-Chloro-4-fluoro-phenylamino)-6-[(1H-imidazol-2-ylmethyl)-amino]-quinoline-3-carbonitrile], the IC50 amounted to 30 nM. Next, `N#Cc1cnc2ccc(NCc3cccc(N)c3)cc2c1Nc1ccc(F)c(Cl)c1` [Example 14, 6-(3-Amino-benzylamino)-4-(3-chloro-4-fluoro-phenylamino)-quinoline-3-carbonitrile]: 140 nM; `Cc1[nH]cnc1CNc1ccc2ncc(C#N)c(Nc3ccc(F)c(Cl)c3)c2c1` [Example 15, 4-(3-Chloro-4-fluoro-phenylamino)-6-[(5-methyl-3H-imidazol-4-ylmethyl)-amino]-quinoline-3-carbonitrile]: 15 nM. Next, `CC(=O)Nc1ccc(CNc2ccc3ncc(C#N)c(Nc4ccc(F)c(Cl)c4)c3c2)cc1` [Example 16, N-(4-{[4-(3-Chloro-4-fluoro-phenylamino)-3-cyano-quinolin-6-ylamino]-methyl}-phenyl)-acetamide]: 227 nM; `N#Cc1cnc2ccc(NCc3ccc([N+](=O)[O-])cc3)cc2c1Nc1ccc(F)c(Cl)c1` [Example 17, 4-(3-Chloro-4-fluoro-phenylamino)-6-(4-nitro-benzylamino)-quinoline-3-carbonitrile]: 190 nM; `CS(=O)(=O)Nc1cccc(CNc2ccc3ncc(C#N)c(Nc4ccc(F)c(Cl)c4)c3c2)c1` [Example 18, N-(3-{[4-(3-Chloro-4-fluoro-phenylamino)-3-cyano-quinolin-6-ylamino]-methyl}-phenyl)-methanesulfonamide]: 280 nM. The figure for `N#Cc1ccc(CNc2ccc3ncc(C#N)c(Nc4ccc(F)c(Cl)c4)c3c2)cc1` [Example 19, 4-(3-Chloro-4-fluoro-phenylamino)-6-(4-cyano-benzylamino)-quinoline-3-carbonitrile] is 590 nM; for `CN(C)c1ccc(CNc2ccc3ncc(C#N)c(Nc4ccc(F)c(Cl)c4)c3c2)c(F)c1C#N` [Example 20, 4-(3-Chloro-4-fluoro-phenylamino)-6-(3-cyano-4-dimethylamino-2-fluoro-benzylamino)-quinoline-3-carbonitrile] it is 610 nM.

`N#Cc1ccccc1CNc1ccc2ncc(C#N)c(Nc3ccc(F)c(Cl)c3)c2c1` [Example 21, 4-(3-Chloro-4-fluoro-phenylamino)-6-(2-cyano-benzylamino)-quinoline-3-carbonitrile] showed a half-inhibitory concentration (IC50) of 130 nM. As to `N#Cc1cnc2ccc(NCc3nccn3CCN3CCOCC3)cc2c1Nc1ccc(F)c(Cl)c1` [Example 22, 4-(3-Chloro-4-fluoro-phenylamino)-6-{[1-(2-morpholin-4-yl-ethyl)-1H-imidazol-2-ylmethyl]-amino}-quinoline-3-carbonitrile], half-maximal inhibition (IC50) required 68 nM. The figure for `CCc1nc(C)c(CNc2ccc3ncc(C#N)c(Nc4ccc(F)c(Cl)c4)c3c2)[nH]1` [Example 23, 4-(3-Chloro-4-fluoro-phenylamino)-6-[(2-ethyl-5-methyl-3H-imidazol-4-ylmethyl)-amino]-quinoline-3-carbonitrile] is 640 nM; for `COCCOc1ccc(CNc2ccc3ncc(C#N)c(Nc4ccc(F)c(Cl)c4)c3c2)cc1Br` [Example 24, 6-[3-Bromo-4-(2-methoxy-ethoxy)-benzylamino]-4-(3-chloro-4-fluoro-phenylamino)-quinoline-3-carbonitrile] it is 380 nM; for `COCCOc1ccc(CNc2ccc3ncc(C#N)c(Nc4ccc(F)c(Cl)c4)c3c2)cc1C#N` [Example 25, 4-(3-Chloro-4-fluoro-phenylamino)-6-[3-cyano-4-(2-methoxy-ethoxy)-benzylamino]-quinoline-3-carbonitrile] it is 82 nM. Molecule `CC(C)(C)OC(=O)COc1ccc(CNc2ccc3ncc(C#N)c(Nc4ccc(F)c(Cl)c4)c3c2)cc1Br` [Example 26, (2-Bromo-4-{[4-(3-chloro-4-fluoro-phenylamino)-3-cyano-quinolin-6-ylamino]-methyl}-phenoxy)-acetic acid tert-butyl ester] showed an IC50 of more than 40000 nM. Next, `N#Cc1cnc2ccc(NCc3cc[nH]n3)cc2c1Nc1ccc(F)c(Cl)c1` [Example 27, 4-(3-Chloro-4-fluoro-phenylamino)-6-[(1H-pyrazol-3-ylmethyl)-amino]-quinoline-3-carbonitrile]: 74 nM; `COc1cc(NCc2cccnc2)cc2c(Nc3ccc(F)c(Cl)c3)c(C#N)cnc12` [Example 28, 4-(3-Chloro-4-fluoro-phenylamino)-8-methoxy-6-[(pyridin-3-ylmethyl)-amino]-quinoline-3-carbonitrile]: 1100 nM.

`COc1cc(NCCN2CCOCC2)cc2c(Nc3ccc(F)c(Cl)c3)c(C#N)cnc12` [Example 29, 4-(3-Chloro-4-fluoro-phenylamino)-8-methoxy-6-(2-morpholin-4-yl-ethylamino)-quinoline-3-carbonitrile] returned a 50% inhibitory concentration (IC50) of 5200 nM.
